Source: patent US11202821B2, “Glucose oxidase compositions” (VEGANUTRITECH LLP, priority 2016, dated 2021)
“And” between values parts separate entries of the source, which are not always exact repeats. Equal entries are not always repeated.

Legend:
[1] = Effect on body weight and muscle mass in type 2 diabetic patients; assay type: in vivo, human; details: type 2 diabetic patient, dose 25 gms per day
Method: Six type 2 diabetic patients were randomly administered the Glucose oxidase containing sweetener composition as per the embodiment of the present invention for […], 5 patients were administered sugar and compositions containing natural sugar substitute (stevia based) based sweeteners, or artificial sweeteners based on Sucralose or Acem or compositions containing dietary fibres with saccharides, dietary fibres with sugar alcohols and dietary fibres with sugar alcohols and saccharides, the details of which are as set forth in the Table below. One patient was not given any composition. Before the onset of the study (week 0) and after 2 months, weight measurements were taken.

[2] = Calorific value by Bomb calorimeter; assay type: physicochemical
Method: Known sweetener compositions based on artificial sweeteners such as sucralose or Acesulfame K along with natural sugar substitute compositions including stevia, sugar, glucose and sucrose, were compared with the sweetener or the nutraceutical compositions containing glucose oxidase enzyme for their calorific values. The calorific values are determined using Bomb calorimeter.

buccal epithelial cells = assay: Non invasive micronucleus assay for oxidative stress in diabetic individuals; assay type: in vivo, human; details: dose 40 gms (0.005 gms for the drugs)
Source text: Known pharmaceutical/nutraceutical compositions as well as other artificial sweeteners were compared to the pharmaceutical composition including the glucose oxidase enzyme of the invention for controlling oxidative stress in diabetic individuals.
Micronucleus is a small nucleus (also known as erratic or third nucleus), present in the cytoplasm of the cell. Formation of micronuclei indicates oxidative stress and genetic damage. The micronucleus assay using scraped buccal epithelial cells is an easy and non-invasive assay to estimate oxidative stress.
The results of the Non Invasive Micronucleus Assay, using buccal epithelial cells were tabulated as follows: […]

[3] = Glucose tolerance test on healthy volunteers; assay type: in vivo, human
Source text: The data is as provided under table 21 and reflects that the sweetener compositions of the present invention are safer to use even for healthy individuals as compared to artificial sweeteners.
Observations of glucose tolerance test on healthy volunteers were made after the consumption of the sweetener composition containing glucose oxidase enzyme, as per the embodiment of the present invention and in comparison, to known artificial sweetener product having artificial sweetener sucralose and bulking agent dextrose monohydrate.

**Q.** Which “Initial Body weight” value ([1]; baseline (week 0)) does the source give for `OC[C@H]1O[C@@](CO)(O[C@H]2O[C@H](CO)[C@@H](O)[C@H](O)[C@H]2O)[C@@H](O)[C@@H]1O` [Sugar] here?
**A.** 60 Kgs

**Q.** And the “Body weight (after two months)” value [1]?
**A.** 62.5 Kgs

**Q.** What about the “Muscle mass increase in % over three months” value [1] of the same compound?
**A.** No change

**Q.** And the Calories/100 g [2]?
**A.** 400 Calories/100 g

**Q.** What about the “Oxidative stress Values (% of cells containing micronuclei) before administration” value (buccal epithelial cells; baseline) of the same compound?
**A.** 5.0 % of cells containing micronuclei

**Q.** And the “Oxidative stress Values (% of cells containing micronuclei) one month after administration” value (buccal epithelial cells)?
**A.** 7 % of cells containing micronuclei

**Q.** With `OC[C@H]1O[C@H](O[C@]2(CCl)O[C@H](CCl)[C@@H](O)[C@@H]2O)[C@H](O)[C@@H](O)[C@H]1Cl` [Sucralose] as the compound, how does the “Glycemic Response” value ([3]; conclusion in words) read?
**A.** respond almost in the same manner as that of Glucose

**Q.** For `OC[C@H]1OC(O)[C@H](O)[C@@H](O)[C@@H]1O` (stereo partly drawn) [Glucose], which Calories/100 g [2] is on record?
**A.** 400 Calories/100 g

**Q.** What does the source list for `O.O=C[C@H](O)[C@@H](O)[C@H](O)[C@H](O)CO` [Dextrose monohydrate]?
**A.** Blood Sugar After 2 hrs ([3]; 2 hrs after 75 gms in 200 ml of water, individual values, monohydrate): 141 and 149 (3×) and 160 (3×) and 156 (2×) and 170 and 175 and 150 and 145 and 158 and 169 and 154 and 159 and 157 and 164 and 161; Blood Sugar After 2 hrs, Average/20 respondents ([3]; after 2 hrs, 75 gms in 200 ml of water, average of 20 respondents): dents- 157.1; Blood Sugar Initial ([3]; before drinking 75 gms in 200 ml of water, individual values, monohydrate): 80 and 79 and 97 and 96 and 100 (2×) and 105 (2×) and 104 (2×) and 86 and 89 and 98 and 102 (2×) and 87 and 95 and 99 and 103 and 93; Blood Sugar Initial, Average/20 respondents ([3]; initial, average of 20 respondents): dents- 92.2
